The values that follow come from ChEMBL document CHEMBL1201862, “PubChem BioAssay data set” (2004).

The target in assay [1] is Cytochrome P450 3A4 (Homo sapiens, UniProt P08684).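 Also: CYP3A4 tested as one member of a cytochrome P450 panel screen.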
Assay [2] has as its target Cytochrome P450 2C9 (Homo sapiens, UniProt P11712).
Assay [3] deals with Cytochrome P450 2D6 (Homo sapiens, UniProt P10635).
For assay [4], the system named is Streptococcus sp. 'group A'. Put plainly: growth inhibition of control SK(-) GAS strain, dose response, counter-screen for streptokinase expression inhibitor project, luminescence, kanamycin, BacTiterGlo, confirmation (AID 1900). It is filed as functional, organism-based. For orientation: Counterscreens check selectivity or assay interference.
The target in assay [5] is T1, Streptokinase A (Streptococcus pyogenes serotype M1, UniProt P10520).
T1 sequence (P10520 whole entry): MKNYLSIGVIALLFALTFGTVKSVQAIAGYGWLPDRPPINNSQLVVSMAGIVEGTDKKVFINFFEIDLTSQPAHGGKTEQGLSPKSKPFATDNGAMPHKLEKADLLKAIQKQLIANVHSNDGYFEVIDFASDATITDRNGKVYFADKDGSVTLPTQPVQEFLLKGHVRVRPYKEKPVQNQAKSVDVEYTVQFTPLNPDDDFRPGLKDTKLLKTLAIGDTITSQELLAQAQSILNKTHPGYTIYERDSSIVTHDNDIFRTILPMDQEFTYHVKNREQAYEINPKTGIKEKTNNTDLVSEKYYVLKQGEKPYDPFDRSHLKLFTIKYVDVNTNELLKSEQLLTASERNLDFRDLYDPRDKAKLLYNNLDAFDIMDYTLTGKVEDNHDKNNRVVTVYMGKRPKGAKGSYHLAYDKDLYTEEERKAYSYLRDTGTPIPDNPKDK
Put plainly: S. pyogenes streptokinase expression inhibitors, potency, dose response, plasminogen activation absorbance, OD405 (AID 1914).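 Also: secreted streptokinase activity via plasminogen activation per viability signal from cell pellet.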 It counts as functional, Streptococcus pyogenes M1 GAS.

The subject of assay [6] is Streptococcus. Put plainly: Group A Streptococcus viability loss, dose response, counter-screen for streptokinase expression inhibitor project, luminescence, BacTiterGlo (AID 1915).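 Also: potency for reduction of bacterial viability or growth.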 It counts as functional, organism-based.
Assay [7] concerns the target Cytochrome P450 2C19 (Homo sapiens, UniProt P33261). Nature of the assay: Cytochrome panel assay with activity outcomes. Panel member name: p450-cyp2c19 Compounds with AC50 equal or less than 10 uM are considered active. It counts as functional. Particulars: read-out: AC50.
Assay [8] concerns the target T2, Cytochrome P450 1A2 (Homo sapiens, UniProt P05177).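 Also: PubChem cytochrome P450 panel assay, CYP1A2 panel member.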
T2 sequence (P05177 whole entry): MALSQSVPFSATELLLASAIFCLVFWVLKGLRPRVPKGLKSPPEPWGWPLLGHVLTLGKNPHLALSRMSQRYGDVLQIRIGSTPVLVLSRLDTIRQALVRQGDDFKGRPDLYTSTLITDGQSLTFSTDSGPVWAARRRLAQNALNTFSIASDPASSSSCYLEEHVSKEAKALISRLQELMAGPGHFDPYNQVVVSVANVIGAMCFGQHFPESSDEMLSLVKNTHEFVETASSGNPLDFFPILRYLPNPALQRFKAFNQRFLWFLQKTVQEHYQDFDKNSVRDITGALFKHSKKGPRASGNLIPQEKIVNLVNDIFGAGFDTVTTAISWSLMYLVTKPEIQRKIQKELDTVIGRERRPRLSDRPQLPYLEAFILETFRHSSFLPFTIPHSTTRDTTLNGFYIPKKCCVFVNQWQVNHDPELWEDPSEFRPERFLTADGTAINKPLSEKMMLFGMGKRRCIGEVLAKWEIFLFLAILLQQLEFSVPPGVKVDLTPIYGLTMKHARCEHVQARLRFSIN

Active and inactive are the calls of the source.

Sequence of Cytochrome P450 2C9 (P11712 whole entry): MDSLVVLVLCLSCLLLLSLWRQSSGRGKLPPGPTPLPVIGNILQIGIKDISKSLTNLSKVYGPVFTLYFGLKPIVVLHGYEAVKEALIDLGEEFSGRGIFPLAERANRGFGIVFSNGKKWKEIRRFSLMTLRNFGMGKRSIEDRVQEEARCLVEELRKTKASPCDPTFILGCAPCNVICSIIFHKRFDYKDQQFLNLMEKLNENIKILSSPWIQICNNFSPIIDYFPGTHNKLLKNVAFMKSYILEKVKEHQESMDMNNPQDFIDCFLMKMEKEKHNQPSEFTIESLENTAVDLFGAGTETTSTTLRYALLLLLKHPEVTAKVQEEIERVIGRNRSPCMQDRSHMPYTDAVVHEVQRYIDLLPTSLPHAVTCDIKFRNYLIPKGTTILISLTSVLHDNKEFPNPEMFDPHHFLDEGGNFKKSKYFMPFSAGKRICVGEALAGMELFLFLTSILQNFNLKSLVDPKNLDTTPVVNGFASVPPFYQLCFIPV
Sequence of Cytochrome P450 2D6 (P10635 whole entry): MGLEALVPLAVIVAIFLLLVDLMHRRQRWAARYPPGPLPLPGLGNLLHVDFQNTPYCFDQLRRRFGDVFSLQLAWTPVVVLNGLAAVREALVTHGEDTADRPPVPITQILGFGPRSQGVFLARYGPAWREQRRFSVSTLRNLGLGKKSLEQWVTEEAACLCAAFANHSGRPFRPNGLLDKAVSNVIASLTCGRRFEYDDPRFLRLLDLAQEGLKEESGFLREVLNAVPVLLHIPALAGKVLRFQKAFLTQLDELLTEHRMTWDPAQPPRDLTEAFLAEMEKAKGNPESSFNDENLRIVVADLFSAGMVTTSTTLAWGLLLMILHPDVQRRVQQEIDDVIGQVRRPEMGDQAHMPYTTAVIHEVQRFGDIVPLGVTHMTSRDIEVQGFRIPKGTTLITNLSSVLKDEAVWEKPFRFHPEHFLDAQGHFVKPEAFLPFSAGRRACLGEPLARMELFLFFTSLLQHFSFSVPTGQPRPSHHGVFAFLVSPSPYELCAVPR
Sequence of Cytochrome P450 2C19 (P33261 whole entry): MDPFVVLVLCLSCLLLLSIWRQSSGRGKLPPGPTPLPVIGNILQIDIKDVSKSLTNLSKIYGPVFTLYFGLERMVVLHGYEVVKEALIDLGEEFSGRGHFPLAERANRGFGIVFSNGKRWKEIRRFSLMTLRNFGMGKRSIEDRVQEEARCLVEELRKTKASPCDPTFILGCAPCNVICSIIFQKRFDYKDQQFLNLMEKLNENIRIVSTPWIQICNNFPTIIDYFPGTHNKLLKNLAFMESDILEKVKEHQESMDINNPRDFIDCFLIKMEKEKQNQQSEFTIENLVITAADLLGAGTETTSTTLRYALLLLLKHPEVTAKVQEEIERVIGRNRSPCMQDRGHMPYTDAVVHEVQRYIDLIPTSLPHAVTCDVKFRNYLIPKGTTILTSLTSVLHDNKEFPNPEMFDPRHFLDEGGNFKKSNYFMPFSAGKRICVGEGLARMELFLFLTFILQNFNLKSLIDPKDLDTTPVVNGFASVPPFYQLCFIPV
Sequence of Cytochrome P450 3A4 (P08684 whole entry): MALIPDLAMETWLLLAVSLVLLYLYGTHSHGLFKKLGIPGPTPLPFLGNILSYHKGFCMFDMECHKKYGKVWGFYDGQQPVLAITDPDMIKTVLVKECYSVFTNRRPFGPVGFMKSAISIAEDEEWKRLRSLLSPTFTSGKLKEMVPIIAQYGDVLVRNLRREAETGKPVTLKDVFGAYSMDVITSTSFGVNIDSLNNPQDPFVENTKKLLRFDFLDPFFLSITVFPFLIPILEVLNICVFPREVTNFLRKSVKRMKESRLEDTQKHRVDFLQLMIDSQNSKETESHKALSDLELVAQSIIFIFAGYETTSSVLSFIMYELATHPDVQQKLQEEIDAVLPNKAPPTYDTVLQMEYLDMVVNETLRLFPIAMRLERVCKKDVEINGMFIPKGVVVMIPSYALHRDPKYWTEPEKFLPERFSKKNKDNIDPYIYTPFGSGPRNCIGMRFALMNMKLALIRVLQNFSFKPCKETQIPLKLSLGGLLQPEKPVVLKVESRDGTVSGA

One may read the AC50 as the concentration at which the activity in the assay is half-maximal. As for `O=C(O)C[S+]([O-])c1ccc2c3c(cccc13)C(=O)c1ccccc1-2` (configuration not stated), the AC50 in assay [1] was 3.98 µM (inconclusive); in assay [2], 6.31 µM (inconclusive).
With `O=c1cnc2cnc(N3CCNCC3)nc2n1CCc1ccccc1`, the concentration at half-maximal activity (AC50) in assay [3] is 15.8 µM (inconclusive); in assay [1], 15.8 µM (inconclusive); in assay [2], 20 µM (inconclusive).
One may read the EC50 as the midpoint of the concentration-response curve. `O=C(Cc1csc(NC(=O)Nc2cccc(Cl)c2)n1)NCc1cccnc1`: the EC50 in assay [4] is 3.19 µM (active); in assay [5], > 150 µM (not active); in assay [6], 13.7 µM (active).
For the compound `CCOC(=O)Nc1ccc2c(c1)OCO2`, the AC50 was 35.5 µM (inconclusive) in assay [3] and 39.8 µM (inconclusive) in assay [2].
As to `O=C(CSc1nc(N2CCOCC2)nc(N2CCOCC2)n1)Nc1cccc(C(F)(F)F)c1`, the concentration giving a half-maximal response (EC50) in assay [4], in assay [5] and in assay [6] was > 150 µM (not active) in each case.
In the case of `CCOC(=O)C1CCN(c2c(NCc3ccc(C(=O)NCCC(C)C)cc3)c(=O)c2=O)CC1`, the AC50 in assay [3] is 0.398 µM (inconclusive); in assay [1] it was 7.94 µM (inconclusive); in assay [2], 7.94 µM (inconclusive).
As for `CCC(C(=O)N1CCC(N2CCCCC2)CC1)n1nc(C)c2sc3ccccc3c2c1=O` (configuration not stated), the EC50 in assay [4], in assay [5] and in assay [6] was > 150 µM (not active) throughout.
With `O=C(Cn1nnc2ccccc21)N1CCCCC1`, the results for the concentration at half-maximal activity (AC50) in assay [7] and in assay [2] were 22.4 µM (inconclusive) and 0.00562 µM (inconclusive), respectively.
On to `CC1(C)OC(C(O)(c2ccccc2)c2ccccc2)[C@@H](C(O)(c2ccccc2)c2ccccc2)O1` (some centres not stated), for which the EC50 in assay [4] was 2.95 µM (active); in assay [5], 2.78 µM (active); in assay [6] it was > 150 µM (not active).
For `O=C(c1ccncc1)N1CCC2(CC1)CN(c1ccncc1)C2`, the AC50 in assay [2] is 31.6 µM (inconclusive).
Consider `Cc1ccc2nc(Nc3nc(=O)cc(-c4ccccc4)[nH]3)nc(C)c2c1`, for which the EC50 in assay [5] was > 150 µM (not active).
With `Cc1ccc2nc(Nc3nc(O)cc(-c4ccccc4)n3)nc(C)c2c1`, the EC50 in assay [4] is 2.94 µM (active); in assay [6] it was 6.98 µM (active).
In the case of `Cc1ccc2[nH]c(-c3ccc(NC(=O)Cc4cccs4)cc3)nc2c1`, the AC50 in assay [7] is 1 µM (inconclusive); in assay [2], 0.708 µM (inconclusive).
For the compound `COCCn1c(=O)c(-c2ccc(OC)cc2)nc2cnc(OC)nc21`, the values for the AC50 in assay [7], in assay [3] and in assay [2] were 39.8 µM (inconclusive), 25.1 µM (inconclusive) and 39.8 µM (inconclusive), respectively.
Regarding `COc1ccc(CNc2nc(-c3c(C)noc3C)nc3ccccc23)c(OC)c1`, in assay [2], the AC50 was 1 µM (inconclusive).
With `Cc1ccc(C(=O)CSc2nc(C)cc(=O)[nH]2)cc1`, the AC50 was 39.8 µM (inconclusive) in assay [7], 31.6 µM (inconclusive) in assay [8] and 0.0282 µM (inconclusive) in assay [2].
With `COc1cc(/C=N/Nc2ncnc3sc4c(c23)CCC4)ccc1O`, the EC50 was 3.88 µM (active) in assay [4], 5.06 µM (active) in assay [5] and > 150 µM (not active) in assay [6].
In the case of `CC(C)(C)NC(=O)C(=O)N/N=C/c1ccc(Br)cc1`, the AC50 in assay [8] and in assay [2] was 15.8 µM (inconclusive) throughout.
With `C=CCn1c(O)cc(=O)nc1SC(C)CC` (configuration not stated), the EC50 in assay [4] was 21.3 µM (active); in assay [5] it was > 150 µM (not active); in assay [6], > 150 µM (not active).
As to `CN(C)CCCn1cc(C2=C(c3c[nH]c4ccccc34)C(=O)NC2=O)c2ccccc21` [GF-109203], the AC50 in assay [2] is 15.8 µM (inconclusive).
With `CC(=O)NCCc1c(Cc2ccccc2)[nH]c2ccccc12` [LUZINDOLE], in assay [2], the AC50 was 15.8 µM (inconclusive).
